The target of this assay is human TRPV4 (Homo sapiens (Human), UniProt Q9HBA0). Put plainly: FLIPR assay for hTRPV4 expressed in BHK cells. The class given is cell-based. The following applies: inhibition of Agonist Compound (EC80)-induced calcium signal; BHK/AC9 cells expressing human TRPV4; read-out: IC50. The procedure: FLIPR Assay for hTRPV4 Expressed in BHK Cells:
TRPV4 channel activation results in an influx of divalent and monovalent cations including calcium. The resulting changes in intracellular calcium were monitored using a calcium specific fluorescent dye Fluo-4 (MDS Analytical Technologies). BHK/AC9 cells transduced with BacMam virus expressing the human TRPV4 gene at a MOI of 78 were plated in a 384 well poly-D lysine coated plate (15,000 cells/well in 50 μL culture medium containing DMEM/F12 with 15 mM HEPES, 10% FBS, 1% Penicillin-Streptomycin and 1% L-glutamine). Cells were incubated for 24 hours at 37° C. and 5% CO2. Culture medium was then aspirated using a Tecan plate-washer and replaced with 20 μL/well of dye loading buffer: HBSS, 500 μM Brilliant Black (MDS Analytical Technologies), and 2 μM Fluo-4 AM. Dye loaded plates were then incubated in the dark at room temperature for 1˜1.5 hours.

The IC50 is the concentration at which inhibition is half-maximal.

human TRPV4, sequence (Q9HBA0 whole entry): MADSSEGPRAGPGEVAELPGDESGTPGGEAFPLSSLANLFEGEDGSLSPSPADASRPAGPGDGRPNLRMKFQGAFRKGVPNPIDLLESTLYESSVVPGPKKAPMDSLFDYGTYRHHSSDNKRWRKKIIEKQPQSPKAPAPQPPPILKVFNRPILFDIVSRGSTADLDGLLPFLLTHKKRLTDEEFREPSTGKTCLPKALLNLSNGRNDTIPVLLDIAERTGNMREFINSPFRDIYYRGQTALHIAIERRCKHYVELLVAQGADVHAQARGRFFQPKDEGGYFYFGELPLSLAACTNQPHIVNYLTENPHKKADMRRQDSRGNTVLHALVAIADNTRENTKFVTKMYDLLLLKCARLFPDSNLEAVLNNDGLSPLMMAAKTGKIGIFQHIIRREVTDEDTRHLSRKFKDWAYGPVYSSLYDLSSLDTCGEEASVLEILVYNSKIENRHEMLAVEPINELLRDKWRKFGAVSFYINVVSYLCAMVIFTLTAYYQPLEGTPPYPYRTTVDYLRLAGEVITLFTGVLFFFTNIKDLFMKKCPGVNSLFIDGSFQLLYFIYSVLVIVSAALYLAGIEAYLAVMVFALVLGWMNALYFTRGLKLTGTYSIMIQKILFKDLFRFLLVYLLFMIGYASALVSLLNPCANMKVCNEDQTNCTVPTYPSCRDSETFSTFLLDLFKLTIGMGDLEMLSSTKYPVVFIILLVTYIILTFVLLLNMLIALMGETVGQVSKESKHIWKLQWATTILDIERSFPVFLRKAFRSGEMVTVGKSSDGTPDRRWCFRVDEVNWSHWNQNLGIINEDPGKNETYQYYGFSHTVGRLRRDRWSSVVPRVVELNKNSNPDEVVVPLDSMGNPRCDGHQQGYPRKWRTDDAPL

Turning to `O=S(=O)(c1ccc(C(F)(F)F)cn1)[C@H]1CN(S(=O)(=O)c2ccc(Cl)cc2Cl)C[C@@]1(O)CO` [Example 116, (3R,4S)-1-((2,4-dichlorophenyl)sulfonyl)-3-(hydroxymethyl)-4-((5-(trifluoromethyl)pyridin-2-yl)sulfonyl)pyrrolidin-3-ol], the IC50 fell in the range of 10 to 100 nM.

As to `O=S(=O)(c1ccc(Cl)c(Cl)c1)[C@H]1CN(S(=O)(=O)c2ccc(Cl)cc2Cl)C[C@]1(O)CO` [Example 115, (3S,4S)-1-((2,4-dichlorophenyl)sulfonyl)-4-((3,4-dichlorophenyl)sulfonyl)-3-(hydroxymethyl)pyrrolidin-3-ol], the IC50 was in the range of 10 to 100 nM.

`N#Cc1ccc(S(=O)(=O)N2C[C@H](S(=O)(=O)c3ccc(Cl)cn3)[C@](O)(CN)C2)c(Cl)c1` [Example 121, 4-(((3S,4S)-3-(aminomethyl)-4-((5-chloropyridin-2-yl)sulfonyl)-3-hydroxypyrrolidin-1-yl)sulfonyl)-3-chlorobenzonitrile]: the IC50 is 0.1 to 10 nM.

Turning to `N#Cc1ccc(S(=O)(=O)[C@H]2CN(S(=O)(=O)c3cc(F)c(Cl)cc3Cl)C[C@@]2(O)CO)cc1F` [Example 16, 4-(((3S,4R)-1-((2,4-dichloro-5-fluorophenyl)sulfonyl)-4-hydroxy-4-(hydroxymethyl)pyrrolidin-3-yl)sulfonyl)-2-fluorobenzonitrile], the half-inhibitory concentration (IC50) lay in the range of 0.1 to 10 nM.

Turning to `N#Cc1ccc(S(=O)(=O)[C@H]2CN(S(=O)(=O)c3ccc(C(F)(F)F)cc3Cl)C[C@]2(O)CO)cc1Cl` [Example 80, 2-chloro-4-(((3S,4S)-1-((2-chloro-4-(trifluoromethyl)phenyl)sulfonyl)-4-hydroxy-4-(hydroxymethyl)pyrrolidin-3-yl)sulfonyl)benzonitrile], the concentration for half-maximal inhibition (IC50) lay within 10 to 100 nM.

On to `N#Cc1ccc(S(=O)(=O)N2C[C@H](S(=O)(=O)c3ccc(C(F)(F)F)cc3)[C@](O)(CO)C2)c(C(F)F)c1` [Example 55, 3-(difluoromethyl)-4-(((3R,4S)-3-hydroxy-3-(hydroxymethyl)-4-((4-(trifluoromethyl)phenyl)sulfonyl)pyrrolidin-1-yl)sulfonyl)benzonitrile], for which the half-maximal inhibitory concentration (IC50) was in the range of 0.1 to 10 nM.

Turning to `N#Cc1ccc(S(=O)(=O)N2C[C@H](S(=O)(=O)c3ccc(C(F)(F)F)cc3)[C@](O)(CO)C2)c(Cl)c1` [Example 54, 3-chloro-4-(((3R,4S)-3-hydroxy-3-(hydroxymethyl)-4-((4-(trifluoromethyl)phenyl)sulfonyl)pyrrolidin-1-yl)sulfonyl)benzonitrile], the IC50 was 0.1 to 10 nM.

Take `N#Cc1ccc(S(=O)(=O)N2C[C@H](S(=O)(=O)c3ccc(Cl)cc3)[C@@](O)(CO)C2)c(Cl)c1` [Example 23, 3-chloro-4-(((3S,4S)-4-((4-chlorophenyl)sulfonyl)-3-hydroxy-3-(hydroxymethyl)pyrrolidin-1-yl)sulfonyl)benzonitrile]: the IC50 lay within 10 to 100 nM.

`N#Cc1ccc(S(=O)(=O)N2C[C@H](S(=O)(=O)c3ccc(C(F)(F)F)nc3)[C@](O)(CO)C2)c(C(F)(F)F)c1` [Example 27, 4-(((3R,4S)-3-hydroxy-3-(hydroxymethyl)-4-((6-(trifluoromethyl)pyridin-3-yl)sulfonyl)pyrrolidin-1-yl)sulfonyl)-3-(trifluoromethyl)benzonitrile]: the IC50 is 10 to 100 nM.

With `N#Cc1ccc(S(=O)(=O)N2C[C@H](S(=O)(=O)c3ccc(Cl)cc3)[C@](O)(CO)C2)c(Cl)c1` [Example 2, 3-chloro-4-(((3R,4S)-4-((4-chlorophenyl)sulfonyl)-3-hydroxy-3-(hydroxymethyl)pyrrolidin-1-yl)sulfonyl)benzonitrile], the half-inhibitory concentration (IC50) fell in the range of 0.1 to 10 nM.

Take `N#Cc1ccc(S(=O)(=O)[C@H]2CN(S(=O)(=O)c3ccc(C(F)(F)F)cc3Cl)C[C@@]2(O)CO)cc1Cl` [Example 101, 2-chloro-4-(((3S,4R)-1-((2-chloro-4-(trifluoromethyl)phenyl)sulfonyl)-4-hydroxy-4-(hydroxymethyl)pyrrolidin-3-yl)sulfonyl)benzonitrile]: the half-maximal inhibitory concentration (IC50) lay in the range of 10 to 100 nM.

In the case of `N#Cc1cc(Cl)ccc1S(=O)(=O)N1C[C@H](S(=O)(=O)c2ccc(C(F)(F)F)nc2)[C@](O)(CO)C1` [Example 40, 5-chloro-2-(((3R,4S)-3-hydroxy-3-(hydroxymethyl)-4-((6-(trifluoromethyl)pyridin-3-yl)sulfonyl)pyrrolidin-1-yl)sulfonyl)benzonitrile], the half-maximal inhibitory concentration (IC50) lay in the range of 10 to 100 nM.

Turning to `N#Cc1ccc(S(=O)(=O)[C@H]2CN(S(=O)(=O)c3ccc(Br)cc3Cl)C[C@@]2(O)CO)cc1` [Example 34, 4-(((3S,4R)-1-((4-bromo-2-chlorophenyl)sulfonyl)-4-hydroxy-4-(hydroxymethyl)pyrrolidin-3-yl)sulfonyl)benzonitrile], the IC50 lay within 0.1 to 10 nM.

Consider `N#Cc1cc(F)c(S(=O)(=O)[C@H]2CN(S(=O)(=O)c3ccc(Cl)cc3Cl)C[C@]2(O)CO)cc1F` [Example 79, 4-(((3S,4S)-1-((2,4-dichlorophenyl)sulfonyl)-4-hydroxy-4-(hydroxymethyl)pyrrolidin-3-yl)sulfonyl)-2,5-difluorobenzonitrile], for which the IC50 lay within 10 to 100 nM.

Consider `N#Cc1ccc(S(=O)(=O)N2C[C@H](S(=O)(=O)c3ccc(Cl)cc3)[C@](O)(CO)C2)c(Br)c1` [Example 38, 3-bromo-4-(((3R,4S)-4-((4-chlorophenyl)sulfonyl)-3-hydroxy-3-(hydroxymethyl)pyrrolidin-1-yl)sulfonyl)benzonitrile], for which the IC50 was in the range of 0.1 to 10 nM.

On to `N#Cc1ccc(S(=O)(=O)N2C[C@H](S(=O)(=O)c3ccc(Cl)cc3)[C@](O)(CO)C2)c(F)c1` [Example 21, 4-(((3R,4S)-4-((4-chlorophenyl)sulfonyl)-3-hydroxy-3-(hydroxymethyl)pyrrolidin-1-yl)sulfonyl)-3-fluorobenzonitrile], for which the half-maximal inhibitory concentration (IC50) lay in the range of 10 to 100 nM.

With `N#Cc1ccc(S(=O)(=O)[C@H]2CN(S(=O)(=O)c3ccc(OC(F)(F)F)cc3Cl)C[C@@]2(O)CO)cc1F` [Example 15, 4-(((3S,4R)-1-((2-chloro-4-(trifluoromethoxy)phenyl)sulfonyl)-4-hydroxy-4-(hydroxymethyl)pyrrolidin-3-yl)sulfonyl)-2-fluorobenzonitrile], the half-maximal inhibitory concentration (IC50) lay in the range of 10 to 100 nM.

Regarding `N#Cc1ccc(S(=O)(=O)[C@H]2CN(S(=O)(=O)c3ccc(F)cc3Cl)C[C@@]2(O)CO)cc1` [Example 62, 4-(((3S,4R)-1-((2-chloro-4-fluorophenyl)sulfonyl)-4-hydroxy-4-(hydroxymethyl)pyrrolidin-3-yl)sulfonyl)benzonitrile], the IC50 lay within 10 to 100 nM.

Take `N#Cc1cc(F)c(S(=O)(=O)[C@H]2CN(S(=O)(=O)c3ccc(Cl)cc3Cl)C[C@@]2(O)CO)cc1F` [Example 95, 4-(((3S,4R)-1-((2,4-dichlorophenyl)sulfonyl)-4-hydroxy-4-(hydroxymethyl)pyrrolidin-3-yl)sulfonyl)-2,5-difluorobenzonitrile]: the concentration for half-maximal inhibition (IC50) lay in the range of 10 to 100 nM.

`N#Cc1ccc(S(=O)(=O)N2C[C@H](S(=O)(=O)c3ccc(Br)cn3)[C@@](O)(CO)C2)c(Cl)c1` [Example 81, 4-(((3S,4S)-4-((5-bromopyridin-2-yl)sulfonyl)-3-hydroxy-3-(hydroxymethyl)pyrrolidin-1-yl)sulfonyl)-3-chlorobenzonitrile]: the IC50 lay within 10 to 100 nM.

In the case of `N#Cc1ccc(S(=O)(=O)[C@H]2CN(S(=O)(=O)c3ccccc3Br)C[C@@]2(O)CO)cc1` [Example 33, 4-(((3S,4R)-1-((2-bromophenyl)sulfonyl)-4-hydroxy-4-(hydroxymethyl)pyrrolidin-3-yl)sulfonyl)benzonitrile], the IC50 lay within 10 to 100 nM.

Values taken from patent US11260049B2, “TRPV4 antagonists” (GlaxoSmithKline Intellectual Property (No. 2) Limited, priority 2016, dated 2022).
